# From publication PMC12150326 (The Journal of Organic Chemistry, 2025)
# “And” between values parts separate entries of the source, which are not always exact repeats. Equal values may be shown once. Read-outs that look alike come from different tables or passages of the source.
# What was measured:
# [1] = system: A549/ATCC; assay type: cell-based, human; details: for GI50: Homo sapiens
# In short: (§1)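 Both axial enantiomers of the parent and of the iso series were evaluated in the NCI cancer cell panel at doses of 100 μM, 10 μM, 1 μM, 0.1 μM and 0.01 μM.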
# [2] = system: SF-268; assay type: cell-based, human
# In short: as §1
# [3] = system: KM12; assay type: cell-based, human; details: for Log10GI50 / Log10LC50 / Log10TGI: KM12
# In short: as §1
# [4] = system: CAKI-1; assay type: cell-based, human; details: for GI50: Homo sapiens
# In short: as §1
# [5] = system: DU-145; assay type: cell-based, human
# In short: as §1
# [6] = system: colchicine site of bovine brain tubulin; assay type: binding; details: for Kd: tubulin binding constant, 25 °C
# Procedure: Inhibition of this fluorescence increase was measured and converted to K d for the test compound as described.
# [7] = system: bovine brain tubulin; experiment: Tubulin polymerization inhibition; assay type: biochemical; details: 10 μM tubulin; for Polymerization Inhibition (%) 3.3 μM: 3.3 μM compound; for Polymerization Inhibition (%) 33 μM: 33 μM compound
# Procedure: Inhibition of tubulin polymerization was determined as described previously. In brief, 10 μM bovine brain tubulin (PurSolutions, LLC (puresoluble.com)) was incubated under conditions strongly promoting polymerization of tubulin (1 M NaGlutamate, 0.1 M Mes (Morpholinoethanesulfonic acid), 1 mM MgCl2, 0.5 mM GTP, pH 6.9), in the absence or presence of 3.3 or 33 μM test compound, incubated for 30 min at 37 °C, then centrifuged at 100,000g for 8 min, and the top 3/4 of the supernatant removed. Protein concentration was measured, and polymerization was determined as pelletable protein lost from the supernatant.
# [8] = system: M14; experiment: Cell-growth inhibition (CellTiter); assay type: cell-based, human; details: read-out: Cell Growth Inhibition GI50 ± SE
# Procedure: (§2) Inhibition of cell growth was determined by using standard procedures. Cell lines were obtained from the NCI anticancer drug screen and maintained in DMEM medium supplemented with 10% fetal bovine serum. Growing cells were exposed to serial dilutions of each compound for 3 days. Cell growth was determined with CellTiter Assay Reagent (Promega), and growth parameters, including inhibition of growth, were measured by using the methods specified by the manufacturer.
# [9] = system: A549; experiment: Cell-growth inhibition (CellTiter); assay type: cell-based, human; details: read-out: Cell Growth Inhibition GI50 ± SE
# Procedure: as §2
# [10] = system: PC3; experiment: Cell-growth inhibition (CellTiter); assay type: cell-based, human; details: read-out: Cell Growth Inhibition GI50 ± SE
# Procedure: as §2
# [11] = system: SN12C; set-up: method as in NCI-60 database; details: SN12C ref NCI-60 database, cited from earlier work
# [12] = system: COLO 205; set-up: method as in NCI-60 database; details: COLO 205 ref NCI-60 database, cited from earlier work
# [13] = system: A498; set-up: method as in NCI-60 database; details: A498 ref NCI-60 database, cited from earlier work
# [14] = system: U251; set-up: method as in NCI-60 database; details: U251 ref NCI-60 database, cited from earlier work
# [15] = system: SW-620; set-up: method as in NCI-60 database; details: SW-620 ref NCI-60 database, cited from earlier work
# [16] = system: UACC-257; set-up: method as in NCI-60 database; details: UACC-257 ref NCI-60 database; cited from earlier work
# [17] = system: MDA-MB-435; set-up: method as in NCI-60 database; details: MDA-MB-435 ref NCI-60 database, cited from earlier work
# [18] = system: NCI/ADR-RES; set-up: method as in NCI-60 database; details: NCI/ADR-RES ref NCI-60 database; listed as 757/9; cited from earlier work
# [19] = system: SNB-78; set-up: method as in NCI-60 database; details: SNB-78 ref NCI-60 database, cited from earlier work
structure (smiles),measurement,setting,value
"COc1cc(C)c(-c2ccc(OC)c(=O)cc2C)c(OC)c1OC (single isomer, unassigned) [(aR)-6]",Log10GI50,[1],-5.42 Molar
same,Log10LC50,[1],> -4.00 Molar
same,Log10TGI,[1],> -4.00 Molar
same,GI50,[1],3.8 µM
same,Log10GI50,[1]; listed as (aR)-DM-MTC,-5.42 Molar
same,Log10GI50,[2],-5.26 Molar
same,Log10LC50,[2],> -4.00 Molar
same,Log10TGI,[2],> -4.00 Molar
same,GI50,[2]; Homo sapiens,5.5 µM
same,Log10GI50,[2]; listed as (aR)-DM-MTC,-5.26 Molar
same,GI50,"[3]; Homo sapiens, KM12 (printed KM29)",1.62 µM
same,Log10GI50,[3],-5.79 Molar
same,Log10LC50,[3],> -4.00 Molar
same,Log10TGI,[3],> -4.00 Molar
same,Log10GI50,[3]; listed as (aR)-DM-MTC,-5.79 Molar
same,Log10GI50,[4],-6.03 Molar
same,Log10LC50,[4],> -4.00 Molar
same,Log10TGI,[4],> -4.00 Molar
same,GI50,[4],0.93 µM
same,Log10GI50,[4]; listed as (aR)-DM-MTC,-6.03 Molar
same,Log10GI50,[5],-5.45 Molar
same,Log10LC50,[5],> -4.00 Molar
same,Log10TGI,[5],> -4.00 Molar
same,GI50,[5]; Homo sapiens,3.55 µM
same,Log10GI50,[5]; listed as (aR)-DM-MTC,-5.45 Molar
same,binding constant fold less potent than 3,[6],5–30 fold
same,Kd,[6]; read-out: Kd,95 µM
same,Polymerization Inhibition (%) 3.3 μM,[7],0%
same,Polymerization Inhibition (%) 33 μM,[7],100%
same,GI50,"[8]; M14, 3 days",1.1 ± 0.2 µM
same,GI50,"[9]; A549, 3 days",2.1 ± 0.1 µM
same,GI50,"[10]; PC3, 3 days",1.5 ± 0.1 µM
"COc1cc(C)c(-c2ccc(=O)c(OC)cc2C)c(OC)c1OC (single isomer, unassigned) [(aR)-iso-6]",Log10GI50,[1],> -4.00 Molar
same,Log10LC50,[1],> -4.00 Molar
same,Log10TGI,[1],> -4.00 Molar
same,Log10GI50,[4],> -4.00 Molar
same,Log10LC50,[4],> -4.00 Molar
same,Log10TGI,[4],> -4.00 Molar
same,Kd,[6],nb
same,Polymerization Inhibition (%) 3.3 μM,[7],0%
same,Polymerization Inhibition (%) 33 μM,[7],0%
same,GI50,"[8]; M14, 3 days",> 20 µM
same,GI50,"[9]; A549, 3 days",> 20 µM
same,GI50,"[10]; PC3, 3 days",> 20 µM
"COc1cc(C)c(-c2ccc(OC)c(=O)cc2C)c(OC)c1OC (single isomer, unassigned) [(aS)-6]",Log10GI50,[1],> -4.00 Molar
same,Log10LC50,[1],> -4.00 Molar
same,Log10TGI,[1],> -4.00 Molar
same,Log10GI50,[2],> -4.00 Molar
same,Log10LC50,[2],> -4.00 Molar
same,Log10TGI,[2],> -4.00 Molar
same,Log10GI50,[3],> -4.00 Molar
same,Log10LC50,[3],> -4.00 Molar
same,Log10TGI,[3],> -4.00 Molar
same,Log10GI50,[4],> -4.00 Molar
same,Log10LC50,[4],> -4.00 Molar
same,Log10TGI,[4],> -4.00 Molar
same,Log10GI50,[5],> -4.00 Molar
same,Log10LC50,[5],> -4.00 Molar
same,Log10TGI,[5],> -4.00 Molar
same,Kd,[6]; read-out: Kd,230 µM
same,Polymerization Inhibition (%) 3.3 μM,[7],0%
same,Polymerization Inhibition (%) 33 μM,[7],0%
same,GI50,"[8]; M14, 3 days",> 20 µM
same,GI50,"[9]; A549, 3 days",> 20 µM
same,GI50,"[10]; PC3, 3 days",> 20 µM
"COc1cc(C)c(-c2ccc(=O)c(OC)cc2C)c(OC)c1OC (single isomer, unassigned) [(aS)-iso-6]",Log10GI50,[1],-4.45 Molar
same,Log10LC50,[1],> -4.00 Molar
same,Log10TGI,[1],> -4.00 Molar
same,GI50,[1],35.5 µM
same,Log10GI50,[1]; […],-4.45 Molar
same,Log10GI50,[4],-4.71 Molar
same,Log10LC50,[4],> -4.00 Molar
same,Log10TGI,[4],> -4.00 Molar
same,GI50,[4],19.5 µM
same,Log10GI50,[4]; […],-4.71 Molar
same,Kd,[6],nb
same,Polymerization Inhibition (%) 3.3 μM,[7],0%
same,Polymerization Inhibition (%) 33 μM,[7],0%
same,GI50,"[8]; Homo sapiens, M14, 72 h, M14, 3 days",> 20 µM
same,GI50,"[9]; Homo sapiens, A549, 72 h, A549, 3 days",> 20 µM
same,GI50,"[10]; Homo sapiens, PC-3, 72 h, PC3, 3 days",> 20 µM
"COc1cc2c(c(OC)c1OC)-c1ccc(OC)c(=O)cc1[C@@H](NC(C)=O)CC2 [Colchicine, (−)-Colchicine]",GI50,[11],0.054 µM
same,Log10GI50,[11],-7.27 Molar
same,Log10LC50,[11],> -4.00 Molar
same,Log10GI50,[11]; listed as 757/9,< -8.00 Molar
same,Log10GI50,[11]; listed as 757/21,-7.33 Molar and -7.28 Molar and -7.27 Molar
same,Log10TGI,[11]; listed as 757/21,> -4.00 Molar and -4.21 Molar
same,GI50,[12],0.01 µM
same,Log10GI50,[12],-7.83 Molar
same,Log10GI50,[12]; listed as 757/1,-5.74 Molar
same,Log10GI50,[12]; listed as 757/21,< -8.00 Molar and -7.83 Molar
same,Log10LC50,[12]; listed as 757/21,-7.24 Molar
same,Log10TGI,[12]; listed as 757/21,-7.89 Molar
same,Log10LC50,[13],> -4.00 Molar
same,Log10GI50,[13]; listed as 757/1,-6.96 Molar
same,Log10TGI,[13]; listed as 757/1,> -4.00 Molar
same,Log10TGI,[13]; listed as 757/9,-5.50 Molar
same,Log10GI50,[13]; listed as 757/21,-7.68 Molar and -7.40 Molar
same,GI50,[14],0.03 µM
same,Log10GI50,[14],-7.53 Molar
same,Log10GI50,[14]; listed as 757/1,-7.38 Molar
same,Log10LC50,[14]; listed as 757/1,> -4.00 Molar
same,Log10TGI,[14]; listed as 757/1,> -4.00 Molar
same,Log10GI50,[14]; listed as 757/9,-7.47 Molar
same,Log10LC50,[14]; listed as 757/21,-4.31 Molar
same,Log10TGI,[14]; listed as 757/21,-6.89 Molar and -6.80 Molar
same,GI50,[15],0.02 µM
same,Log10GI50,[15],-7.66 Molar
same,Log10LC50,[15],> -4.00 Molar
same,Log10GI50,[15]; listed as 757/1,-7.46 Molar
same,GI50,[16],> 100 µM
same,Log10GI50,[16],> -4 Molar
same,Log10LC50,[16],> -4.00 Molar
same,Log10TGI,[16],> -4.00 Molar
same,GI50,[17],< 0.01 µM
same,Log10GI50,[17],< -8 Molar
same,Log10LC50,[17]; listed as 757/9,< -8.00 Molar
same,Log10TGI,[17]; listed as 757/9,< -8.00 Molar
same,Log10GI50,[17]; listed as 757/21,< -8.00 Molar
same,Log10LC50,[17]; listed as 757/21,> -4.00 Molar
same,Log10TGI,[17]; listed as 757/21,-7.50 Molar
same,GI50,"[8]; Homo sapiens, M14, 72 h",0.01 ± 0.001 µM
same,GI50,"[9]; Homo sapiens, A549, 72 h",0.04 µM
same,GI50,"[10]; Homo sapiens, PC-3, 72 h",0.02 ± 0.005 µM
same,Log10GI50,[18],-6.59 Molar and -6.31 Molar
same,Log10LC50,[19],> -4.00 Molar
same,Log10TGI,[19],> -4.00 Molar
same,Log10GI50,[19]; listed as 757/21,-7.88 Molar and < -8.00 Molar
